Test results as given in US6890921B1, “Arylsubstituted piperazines useful in the treatment of benign prostatic hyperplasia” (Ortho-McNeil Pharmaceutical, Inc., priority 1997, dated 2005).
pIC50: −log10 of the molar value.

What was measured:
[1] = test system: rat prostatic tissue (α1a-AR); assay: Norepinephrine-induced contractile response of rat prostatic tissue; settings: rat prostatic strips, 32° C., read-out: IC50 for inhibition of contractile response in prostate tissue
Description: (§1) The contractile responses of rat prostatic tissue and rat aorta tissues were examined in the presence and absence of antagonist compounds. As an indication of the selectivity of antagonism, test compound effects on vascular smooth muscle contractility (α1b-AR and α1d-AR) were compared to the effects on prostatic smooth muscle (α1a-AR). Strips of prostatic tissue and aortic rings were obtained from Long Evans derived male rats weighing 275 grams and sacrificed by cervical dislocation. The prostate tissue was placed under 1 gram tension in a 10 ml bath containing phosphate buffered saline pH 7.4 at 32° C. and isometric tension was measured with force transducers. The aortic tissue was placed under 2 grams tension in a 10 ml bath containing phosphate buffered saline pH 7.4 at 37° C. The ability of test compound to reduce the norepinephrine-induced contractile response by 50% (IC50) was determined.

α1a-AR = target: T1, α1a-AR (Homo sapiens, UniProt P35348); assay: Radioligand ([125I]-HEAT) receptor binding assay, COS cell membranes expressing α1a-AR; settings: [125I]-HEAT 50 pM
T1 construct: expressed in transfected cells; host or cells: COS cells (transient, DEAE-dextran), membranes
T1 sequence (P35348 1-466): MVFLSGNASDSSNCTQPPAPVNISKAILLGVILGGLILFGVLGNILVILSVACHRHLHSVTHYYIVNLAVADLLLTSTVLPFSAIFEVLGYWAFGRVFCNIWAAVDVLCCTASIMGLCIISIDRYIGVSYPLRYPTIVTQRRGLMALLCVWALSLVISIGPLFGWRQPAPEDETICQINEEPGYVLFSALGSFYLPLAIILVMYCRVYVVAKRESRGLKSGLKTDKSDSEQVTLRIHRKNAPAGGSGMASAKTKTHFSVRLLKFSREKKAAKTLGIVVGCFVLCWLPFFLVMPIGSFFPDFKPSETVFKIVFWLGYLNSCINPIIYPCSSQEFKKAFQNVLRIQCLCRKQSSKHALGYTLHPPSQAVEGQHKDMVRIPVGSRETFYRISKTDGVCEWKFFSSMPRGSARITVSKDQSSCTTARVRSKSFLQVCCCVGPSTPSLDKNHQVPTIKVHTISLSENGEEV
Description: (§2) The DNA sequences of the three cloned human α1-AR subtypes have been published. […] We used published DNA sequence information to design primers for use in RT-PCR amplification of each subtype to obtain cloned cDNAs. Human poly A+ RNA was obtained from commercially available sources and included hippocampus and prostate samples, sources which have been cited in the literature. For the primary screen a radio ligand binding assay was used which employed membrane preparations from cells expressing the individual cloned receptor cDNAs. Radiolabeled ligands with binding activity on all three subtypes (non-selective) are commercially available ([125I]-HEAT, [3H]-prazosin).
(§3) Each α1 receptor subtype was cloned from poly A+ RNA by the standard method of reverse transcription-polymerase chain reaction (RT-PCR). The following sources of polyA+ RNA were used for the cloning of the α1 receptor subtypes: α1a-AR, human hippocampus and prostate, α1b-AR, human hippocampus, α1d-AR, human hippocampus. The resulting cDNAs were cloned into the pcDNA3 mammalian expression vector (Invitrogen Corp., San Diego Calif.). Each DNA was sequenced for verification and to detect any possible mutations introduced during the amplification process. Any deviation in sequence from the published consensus for each receptor subtype was corrected by site-directed mutagenesis.
(§4) The three α1-AR subtypes (a, b, d) were transfected into COS cells using a standard DEAE-dextran procedure with a chloroquine shock. In this procedure, each tissue culture dish (100 mm) was inoculated with 3.5×10^6 cells and transfected with 10 μg of DNA. Approximately 72 hours post-transfection, the cells were harvested and COS membranes were prepared. Transfected COS cells from 25 plates (100 mm) were scraped and suspended in 15 mL of TE buffer (50 mM Tris-HCl, 5 mM EDTA, pH7.4). The suspension was disrupted with a homogenizer. It was then centrifuged at 1000×g for 10 minutes at 4° C. The supernatant was centrifuged at 34,500×g for 20 minutes at 4° C. The pellet was resuspended in 5 mL TNE buffer (50 mM Tris-HCl, 5 mM EDTA, 150 mM NaCl, pH7.4). The resulting membrane preparation was aliquoted and stored at −70° C. The protein concentration was determined following membrane solubilization with TritonX-100.
(§5) The ability of each compound to bind to each of the α1-AR subtypes was assessed in a receptor binding assay. [125I]-HEAT, a non-selective α1-AR ligand, was used as the radiolabeled ligand. Each well of a 96-well plate received: 140 μL TNE, 25 μL [125I]-HEAT diluted in TNE (50,000 cpm; final concentration 50 pM), 10 μL test compound diluted in DMSO (final concentration 1 pM-[…]), […] COS cell membrane preparation expressing one of the three α1-AR subtypes (0.05-0.2 mg membrane protein). The plate was incubated for 1 hour at room temperature and the reaction mixtures were filtered through a Packard GF/C Unifilter filter plate. The filter plate was dried for 1 hour in a vacuum oven. Scintillation fluid ([…]) was added to each well, and the filter plate was counted in a Packard Topcount scintillation counter. Data was analyzed using GraphPad Prism software.
(§6) Tables A & B list the IC50 values expressed in nanomolar concentration for select compounds of the invention in all receptor subtypes.

α1d-AR = target: T2, α1d-AR (Homo sapiens, UniProt P25100); assay: Radioligand ([125I]-HEAT) receptor binding assay, COS cell membranes expressing α1d-AR; settings: [125I]-HEAT 50 pM
T2 construct: expressed in transfected cells; host or cells: COS cells (transient, DEAE-dextran), membranes
T2 sequence (P25100 1-572): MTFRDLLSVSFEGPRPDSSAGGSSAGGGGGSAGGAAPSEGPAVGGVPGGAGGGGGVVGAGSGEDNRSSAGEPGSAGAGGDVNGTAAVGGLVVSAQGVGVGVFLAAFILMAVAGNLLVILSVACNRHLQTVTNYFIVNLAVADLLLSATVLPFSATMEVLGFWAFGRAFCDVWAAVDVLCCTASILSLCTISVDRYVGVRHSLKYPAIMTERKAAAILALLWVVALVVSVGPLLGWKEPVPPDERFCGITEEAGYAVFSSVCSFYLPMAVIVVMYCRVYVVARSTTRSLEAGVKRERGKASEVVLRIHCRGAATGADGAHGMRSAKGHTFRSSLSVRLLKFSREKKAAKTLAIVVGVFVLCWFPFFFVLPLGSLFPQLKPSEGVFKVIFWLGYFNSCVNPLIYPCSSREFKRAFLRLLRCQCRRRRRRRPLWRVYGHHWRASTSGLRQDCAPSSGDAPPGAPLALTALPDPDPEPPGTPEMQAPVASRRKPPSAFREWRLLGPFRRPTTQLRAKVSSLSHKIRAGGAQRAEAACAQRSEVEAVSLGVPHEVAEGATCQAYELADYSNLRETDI
Description: as §2, §3, §4, §5, §6

α1b-AR = target: T3, α1b-AR (Homo sapiens, UniProt P35368); assay: Radioligand ([125I]-HEAT) receptor binding assay, COS cell membranes expressing α1b-AR; settings: [125I]-HEAT 50 pM
T3 construct: expressed in transfected cells; host or cells: COS cells (transient, DEAE-dextran), membranes
T3 sequence (P35368 1-520): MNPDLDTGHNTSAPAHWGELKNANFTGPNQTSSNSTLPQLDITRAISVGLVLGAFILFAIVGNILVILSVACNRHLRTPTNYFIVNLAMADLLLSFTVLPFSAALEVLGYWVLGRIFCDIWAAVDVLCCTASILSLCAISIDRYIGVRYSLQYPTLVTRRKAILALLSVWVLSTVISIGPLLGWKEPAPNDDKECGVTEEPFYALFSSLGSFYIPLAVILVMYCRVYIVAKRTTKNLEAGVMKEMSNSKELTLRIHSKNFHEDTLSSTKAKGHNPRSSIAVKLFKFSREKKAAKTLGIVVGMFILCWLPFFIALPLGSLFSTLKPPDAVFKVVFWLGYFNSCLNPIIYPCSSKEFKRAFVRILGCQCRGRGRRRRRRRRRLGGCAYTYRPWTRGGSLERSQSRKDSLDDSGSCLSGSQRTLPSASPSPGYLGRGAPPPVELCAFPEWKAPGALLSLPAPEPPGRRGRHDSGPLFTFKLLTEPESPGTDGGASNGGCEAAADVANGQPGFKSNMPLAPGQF
Description: as §2, §3, §4, §5, §6

[2] = test system: rat aorta tissue (α1b-AR and α1d-AR); assay: Norepinephrine-induced contractile response of rat aorta tissue; settings: rat aortic rings, 37° C., read-out: IC50 for inhibition of contractile response in aortic tissue
Description: as §1

[3] = target: T4, HEK 293s cells expressing human α1a-AR (Homo sapiens, UniProt P35348); assay: Antagonism of norepinephrine-induced mobilization of cytosolic calcium (Fluo-3, FLIPR); assay type: cell-based; settings: norepinephrine 10 uM, read-out: IC50 for inhibition of the mobilization of cytosolic calcium
T4 construct: expressed in transfected cells
T4 sequence (P35348 1-466): T1 sequence (P35348 1-466)
Description: Binding of an agonist to α1-ARs causes the activation of PLC through G-protein coupled mechanisms (Minneman and Esbenshade, 1994). PLC catalyzes the hydrolysis of phosphatidyl inositol 4,5-bisphosphate (PIP2) generating two second messenger molecules, inositol 1,4,5-triphosphate (IP3) and diacylglycerol (DAG) and ultimately resulting in mobilization of intracellular calcium stores.
Preparation of stable cell lines expressing each receptor subtype: The alpha 1 adrenergic receptor subtypes (a, b, d) in the pcDNA3 vector were transfected into HEK 293s (human embryonic kidney) cells to form stable receptor-expressing cell lines. Transfection was performed using DMRIE-C (GibcoBRL) cationic lipid reagent mixed with 2-3 ug of DNA and reduced serum OPTI-MEM 1 medium (GibcoBRL). Cells in 100 mm tissue culture plates were overlayed with the lipid-DNA complex and incubated at 37° C., 5% CO2 for 5-6 hours. Serum-containing growth medium was then added and cells were incubated for an additional 48 hours. […] Positive cultures were subsequently analyzed by the calcium mobilization assay.
HEK 293s cells expressing human α1a-AR were lifted with trypsin and washed once with HBSS. […] Afterward, the agonist was added and fluorescent signal was monitored for 2-3 minutes using FLIPR (Molecular Devices, USA).

| pIC50 [1] | pIC50 (α1a-AR; Table A) | pIC50 (α1d-AR; Table A) | pIC50 (α1b-AR; Table A) | pIC50 [2] | pIC50 [3] | pIC50 (α1a-AR; Table B) | pIC50 (α1d-AR; Table B) | pIC50 (α1b-AR; Table B) | Structure (SMILES) |
| --- | --- | --- | --- | --- | --- | --- | --- | --- | --- |
|  | 7.74 | 6.30 | 5.45 |  |  |  |  |  | CC(C)Oc1ccccc1N1CCN(CCNC(=O)CN2CCCCCC2=O)CC1 [compound 11] |
|  | 7.01 | 4.52 | 3.96 |  |  |  |  |  | COc1ccccc1N1CCN(CCCNC(=O)CN2CCCCC2=O)CC1 [compound 12] |
|  |  |  |  |  |  | 6.98 | 7.96 | 5.79 | CC(C)Oc1ccccc1N1CCN(CCNC(=O)CN2C(=O)c3ccccc3C2=O)CC1 [compound 13] |

The remaining lines, values behind:

| Structure (SMILES) | pIC50 [1] | pIC50 (α1a-AR; Table A) | pIC50 (α1d-AR; Table A) | pIC50 (α1b-AR; Table A) | pIC50 [2] | pIC50 [3] | pIC50 (α1a-AR; Table B) | pIC50 (α1d-AR; Table B) | pIC50 (α1b-AR; Table B) |
| --- | --- | --- | --- | --- | --- | --- | --- | --- | --- |
| CC(C)Oc1ccccc1N1CCN(CCNC(=O)CN2CCCCC2=O)CC1 [Cpd. 5] | 5.89 | 8.06 | 6.43 | 4.34 | 4.50 | 4.00 |  |  |  |
| CC(C)Oc1ccccc1N1CCN(CCN(C)C(=O)CN2CCCCC2=O)CC1 [Cpd. 6] |  | 7.28 | 6.19 | 3.12 |  |  |  |  |  |
| C=CCN(CCN1CCN(c2ccccc2OC(C)C)CC1)C(=O)CN1CCCCC1=O [compound 7] |  | 6.99 | 6.43 | 3.76 |  |  |  |  |  |
| CC(C)Oc1ccccc1N1CCN(CCN(Cc2ccccc2)C(=O)CN2CCCCC2=O)CC1 [compound 9] |  | 7.06 | 6.46 | 5.37 |  |  |  |  |  |
| CCOC(=O)C1CCC(=O)N1CC(=O)NCCN1CCN(c2ccccc2OC(C)C)CC1 (stereo not drawn) [compound 10] |  | 7.70 | 6.59 | 4.58 |  |  |  |  |  |
